Drawing on ChEMBL document CHEMBL1147251, “Crambescidin 826 and dehydrocrambine A: new polycyclic guanidine alkaloids from the marine sponge Monanchora sp. that inhibit HIV-1 fusion” (J Nat Prod, 2003), this text covers IC50 and Activity for four compounds.

Experiment [1] can be described thus: Inhibition of HIV1 LAV gp120 binding to CD4 assessed as inhibition of CD4 expressing african green monkey BSC1 cells fusion to CXCR4 expressing mouse NIH3T3 cells after 2.5 hrs by beta-galactosidase assay. It counts as cell-based, Human immunodeficiency virus 1.
A short description of experiment [2]: Inhibition of HIV1 SF162 gp120 binding to CD4 assessed as inhibition of CD4 expressing african green monkey BSC1 cells fusion to CCR5 expressing mouse NIH3T3 cells after 2.5 hrs by beta-galactosidase assay. It counts as cell-based, Human immunodeficiency virus 1.
Experiment [3] relates to NIH3T3. Nature of the experiment: Inhibition of HIV1 SF162 gp120 binding to CD4 assessed as inhibition of CD4 expressing african green monkey BSC1 cells fusion to CCR5 expressing mouse NIH3T3 cells treated after 15 to 90 mins of fusion measured after 2.5 hrs by beta-galactosidase assay. The conditions noted are these: Human immunodeficiency virus 1. In kind it is cell-based.

Experiment [4] relates to NIH3T3. Kind of experiment: Inhibition of HIV1 LAV gp120 binding to CD4 assessed as inhibition of CD4 expressing african green monkey BSC1 cells fusion to CXCR4 expressing mouse NIH3T3 cells treated after 15 to 90 mins of fusion measured after 2.5 hrs by beta-galactosidase assay. It counts as cell-based. As to conditions: Human immunodeficiency virus 1.

Calls of active or inactive are those of the source. No cut-off for these calls is given here.

What is called IC50 is the concentration at which inhibition is half-maximal. In the case of `CC[C@H]1C=CCC[C@@]2(C[C@@H]3CC[C@@H]4[C@H](C(=O)OCCCCCCCCCCCCCCCCCC(=O)N(CCCN)CCCC(N)=O)[C@]5(CCC[C@@H](C)O5)N=C(N2)N34)O1` [CRAMBESCIDIN 826], the IC50 in experiment [1] and in experiment [2] was 1000 nM in each case.
For the compound `CCCCCCCCCCCc1nc(=N)n2c(c1C(=O)OCCCCNC(=N)N)CCC2` [DEHYDROCRAMBINE A], the IC50 in experiment [1] and in experiment [2] was 35000 nM throughout.
`CC[C@H]1C=CCC[C@@]2(C[C@@H]3CC[C@@H]4[C@H](C(=O)OCCCCCCCCCCCCCCCC5=NCCCN5CC(O)CCN)[C@]5(CCC[C@@H](C)O5)N=C(N2)N34)O1` (stereo not given in full) [FROMIAMYCALIN]: the IC50 in experiment [1] and in experiment [2] was 1000 nM in each case.
For `CC[C@H]1CCCC[C@@]2(C[C@@H]3CC[C@@H]4[C@H](C(=O)OCCCCCCCCCCCCCCCC(=O)N(CCCN)C[C@@H](O)CCN)[C@]5(CCC[C@@H](C)O5)N=C(N2)N34)O1` [CRAMBESCIDIN 800], the IC50 in experiment [1] and in experiment [2] was 1000 nM each time. The outcome in the experiment with NIH3T3 [3] and with NIH3T3 [4] was inactive.
